Measurements published in patent US11497729B2, “Methods and materials for treating cancer” (Mayo Foundation for Medical Education and Research, priority 2016, dated 2022).
Entries after “also recorded” stand apart in the source; their conditions may differ.

Assays:
HER3 = test: Western blot of ZR-75-1 cell lysates, HER3; type: cell-based; conditions: ZR-75-1 cells, 10 μM P005091 for 12 hours; FIG. 5
Procedure: (§1) Breast cancer cells ZR-75-1 were treated with either 1% DMSO or 10 μM P005091 for 12 hours. Cell lysates were subjected to western blot with indicated antibodies (FIG. 5).

HER4 = test: Western blot of ZR-75-1 cell lysates, HER4; type: cell-based; conditions: ZR-75-1 cells, 10 μM P005091 for 12 hours; FIG. 5
Procedure: as §1

HER1 (EGFR) = test: Western blot of ZR-75-1 cell lysates, HER1; type: cell-based; conditions: ZR-75-1 cells, 10 μM P005091 for 12 hours; FIG. 5
Procedure: as §1

HER2 = test: Western blot of ZR-75-1 cell lysates, HER2; type: cell-based; conditions: ZR-75-1 cells, 10 μM P005091 for 12 hours; FIG. 5
Procedure: as §1

[1] = tested on: HER2+ patient derived xenograft; test: HER2+ patient derived xenograft model in SCID mice; type: in vivo; conditions: Herceptin 15 mg/kg and P005091 10 mg/kg intraperitoneally once a week, FIG. 4C
Procedure: (§2) P005091 increased the efficacy of the HER2 inhibitor, trastuzumab, in HER2^+ breast cancer cells, xenografts, and PDX models. HER2^+ breast cancer cells were treated with indicated concentrations of Herceptin with or without 10 μM P005091 for 72 hours. Cell survival was determined by MTS assays. Data was shown as mean values for three independent experiments, and error bars represent standard error of the mean (SEM) (n=3) (FIG. 4A). Tumor xenografts were initiated by subcutaneous inoculation of Bt474 parental and Bt474 Herceptin resistance cells in the lower back of SCID mice. Herceptin (15 mg/kg) and P005091 (10 mg/kg) were administered intraperitoneally once a week for the entire duration of the study. […] A HER2^+ patient derived xenograft model was tested by inoculation of tissues in the lower back of SCID mice (FIG. 4C). Drug treatment was same as described above. Data represent the mean±SD of 6 mice in each group.

[2] = tested on: HER2+ breast cancer cells; test: Cell survival by MTS assay, Herceptin with or without P005091; type: cell-based; conditions: FIG. 4A
Procedure: as §2

SMILES: CC(=O)c1cc([N+](=O)[O-])c(Sc2cccc(Cl)c2Cl)s1 [P005091, 1-[5-(2,3-dichlorophenyl)sulfanyl-4-nitrothiophen-2-yl]ethanone]
- HER3 protein level by Western blot (HER3): down regulated
- HER4 protein level by Western blot (HER4): down regulated
- HER1 (EGFR) protein level by Western blot (HER1 (EGFR)): down regulated
- HER2 protein level by Western blot (HER2): down regulated
- sensitivity of PDX model to treatment [1]: dramatically sensitized
- sensitization effect in HER2 resistant breast cancer cell lines ([2]; HER2 resistant breast cancer cell lines): sensitization effect occurred
- sensitization of HER2+ breast cancer cells to trastuzumab treatment (cell survival) ([2]; four different HER2+ breast cancer cells, 10 μM P005091 with Herceptin for 72 hours): sensitizes; also recorded: dramatically sensitized
